Test results as given in US20080145313A1, “Compositions and Methods for the Treatment and Prevention of Neoplastic Disorders” (Genesis Research & Development Corporation Limited, priority 2006, published 2008).

test system: A549 cells; test: Growth inhibition of siRNA-transfected A549 cells, SYBR Green I DNA content; format: cell-based, human; settings: 10 nM siRNA; DNA content 96 hours after transfection
Procedure: A549 cells (human lung cancer cell line; ATCC No. CCL-185), SK-MeI-5 cells (human melanoma cell line; ATCC No. HTB-70), MCF-7 cells (human adenocarcinoma cell line; ATCC No. HTB-22), HCT-116 cells (colorectal carcinoma; ATCC CCL-247) and HCT-116 p53 null cells (derived from ATCC No. CCL-247; Bunz et al., Science 282:1497-1501, 1998) were cultured in RPMI 1640 medium with 10% v/v heat-inactivated fetal calf serum (FCS). Cells were seeded at a density of 5×10^4 cells/cm^2 in multi-well tissue culture plates. Sequences of Stealth™ siRNA duplexes (Invitrogen) targeting human ribonucleotide reductase subunit 1 (SEQ ID NO: 22) and subunit 2 (SEQ ID NO; 38) are given in SEQ ID NO: 4830-4832 (DNA), and SEQ ID NO: 5136-5138 (RNA) for RRM1, and SEQ ID NO: 5306-5308 (DNA), and SEQ ID NO: 5303-5305 (RNA) for RRM2. siRNAs were transfected at different concentrations into cells using Lipofectamine™ RNAiMAX transfection reagent (Invitrogen). Non-specific siRNA (SEQ ID NO: 4804 and 4805 (DNA), and SEQ ID NO: 5301 and 5302 (RNA)) were used as controls. The cellular DNA content was measured using a SYBR Green I-based fluorometric assay at 24, 48, 72 and 96 hours after transfection (120 hours for the MCF-7 cells), as follows. At the indicated time points following reverse transfection, cells were harvested and frozen at −80° C. overnight. Cells were thawed and cell lysis buffer (phosphate-buffered saline (PBS) containing 1% Triton X-100, pH 7) and SYBR Green I (1:10^5 V/V; Invitrogen) was added to the wells and incubated overnight in the dark at 4° C.
The following day, cell lysates were mixed thoroughly, and DNA fluorescence was measured with a Wallac Victor^2 plate reader (Turku, Finland) set at an excitation frequency of 485 nm and measuring emission at 535 nm.
To determine the duration of the knock-down effect of RRM1-targeting siRNA, A549 cells were reverse transfected with 1 or 10 nM RRM1-3 (SEQ ID NO: 4832 (DNA, and SEQ ID NO: 5138 (RNA)) or control siRNA (SEQ ID NO: 4804 (DNA), and SEQ ID NO: 5301 (RNA)), and growth followed over time. Growth inhibition was measured daily as described above for up to ten days. RRM1-3-mediated RRM1 silencing inhibited growth for at least 10 days post-transfection at both 1 and 10 nM (FIG. 11).
siRNA-mediated inhibition of cancer cell growth was determined in A549 cells as follows. A549 cells (human lung cancer cell line; ATCC No. CCL-185) were cultured in RPMI 1640 medium with 10% v/v heat-inactivated fetal calf serum. Cells were seeded at a density of 5×10^3 cells/cm^2 in multi-well tissue culture plates. Stealth™ siRNA duplexes (Invitrogen) targeting genes involved in cancer energy and metabolism pathways and listed in Table 9, were transfected at 10 nM into cells using Lipofectamine™ RNAiMAX transfection reagent (Invitrogen). Non-specific siRNA (SEQ ID NO: 4804 and 4805 (DNA), and SEQ ID NO: 5301 and 5302 (RNA)) were used as controls. The cellular DNA content was measured using a SYBR Green I-based fluorometric assay at 96 hours after transfection. The cells were harvested and frozen at −80° C. overnight. Cells were thawed and cell lysis buffer (phosphate-buffered saline (PBS) containing 1% Triton X-100, pH 7) and SYBR Green I (1:10^5 v/v; Invitrogen) was added to the wells and incubated overnight in the dark at 4° C. The following day, cell lysates were mixed thoroughly, and DNA fluorescence was measured with a Wallac Victor^2 plate reader (Turku, Finland) set at an excitation frequency of 485 nm and measuring emission at 535 nm.
Three different siRNAs were tested for each target gene. The average fluorescence units from three replicate wells, representing the amount of DNA per well, were used to determine the effect on growth inhibition. The results are given in Table 10 (energy and metabolism gene targets) and Table 11 (transporter gene targets).
siRNA-mediated RNAi was also determined on a panel of different cell lines. […]

Q: How did the “Growth Inhibition in A549 cells” value turn out when “SEQ ID NO: 4825: siRNA targeting CPS1 (chain 1 AATACCTTCACCAAAGCAAGCCACC; chain 2 AAUACCUUCACCAAAGCAAGCCACC; chemistry not given here; one strand in two spellings)” was run?
A: The value was “− (no growth inhibition with any siRNA)”.

Q: Which “Growth Inhibition in A549 cells” value does the source give for “SEQ ID NO: 4826: siRNA targeting CPS1 (chain 1 TTCCCAAGCATGGTACCCTTATCCC; chain 2 UUCCCAAGCAUGGUACCCUUAUCCC; chemistry not given here; one strand in two spellings)” here?
A: Its value is “− (no growth inhibition with any siRNA)”.

Q: Which “Growth Inhibition in A549 cells” value does the source give for “SEQ ID NO: 4828: siRNA targeting CAD (chain 1 TGTCTGAGAAGCCAAGACACTTGGC; chain 2 UGUCUGAGAAGCCAAGACACUUGGC; chemistry not given here; one strand in two spellings)” here?
A: The value was “− (no growth inhibition with any siRNA)”.

Q: For “SEQ ID NO: 4829: siRNA targeting CAD (chain 1 AACTGTGTCAATCTGTTTCACTGCT; chain 2 AACUGUGUCAAUCUGUUUCACUGCU; chemistry not given here; one strand in two spellings)”, which “Growth Inhibition in A549 cells” value is on record?
A: The value was “+ (inhibits by at least 50%)”.

Q: Which “Growth Inhibition in A549 cells” value does the source give for “SEQ ID NO: 4836: siRNA targeting DHFR (chain 1 AATATCTGAATTCATTCCTGAGCGG; chain 2 AAUAUCUGAAUUCAUUCCUGAGCGG; chemistry not given here; one strand in two spellings)” here?
A: Its value is “+ (inhibits by at least 50%)”.

Q: “SEQ ID NO: 4837: siRNA targeting DHFR (chain 1 TTTCAAAGTCTTGCATGATCCTTGT; chain 2 UUUCAAAGUCUUGCAUGAUCCUUGU; chemistry not given here; one strand in two spellings)” was tested. Which “Growth Inhibition in A549 cells” value did it give?
A: The value was “− (no growth inhibition with any siRNA)”.

Q: “SEQ ID NO: 4838: siRNA targeting DHFR (chain 1 TTCTGGCAGAAGTTTATATTTCTCC; chain 2 UUCUGGCAGAAGUUUAUAUUUCUCC; chemistry not given here; one strand in two spellings)” was tested. Which “Growth Inhibition in A549 cells” value did it give?
A: Its value is “+ (inhibits by at least 50%)”.

Q: Which “Growth Inhibition in A549 cells” value does the source give for “SEQ ID NO: 4839: siRNA targeting AK1 (chain 1 TTCTGCACGATCTTCTCACACTGGG; chain 2 UUCUGCACGAUCUUCUCACACUGGG; chemistry not given here; one strand in two spellings)” here?
A: Its value is “− (no growth inhibition with any siRNA)”.

Q: “SEQ ID NO: 4840: siRNA targeting AK1 (chain 1 TAGCCATCAATCAGGAAGCCTTTGG; chain 2 UAGCCAUCAAUCAGGAAGCCUUUGG; chemistry not given here; one strand in two spellings)” was tested. Which “Growth Inhibition in A549 cells” value did it give?
A: Its value is “+ (inhibits by at least 50%)”.

Q: “SEQ ID NO: 4841: siRNA targeting AK1 (chain 1 AAACTCTTCTCCTTGCTGCACCTCC; chain 2 AAACUCUUCUCCUUGCUGCACCUCC; chemistry not given here; one strand in two spellings)” was tested. Which “Growth Inhibition in A549 cells” value did it give?
A: The value was “− (no growth inhibition with any siRNA)”.

Q: How did the “Growth Inhibition in A549 cells” value turn out when “SEQ ID NO: 4842: siRNA targeting NADSYN (chain 1 TAGCTGATCTGGTTCACGATGGTGC; chain 2 UAGCUGAUCUGGUUCACGAUGGUGC; chemistry not given here; one strand in two spellings)” was run?
A: The value was “+ (inhibits by at least 50%)”.

Q: “SEQ ID NO: 4843: siRNA targeting NADSYN (chain 1 ATGAGCTGCAAACAGAGGGCTCTTC; chain 2 AUGAGCUGCAAACAGAGGGCUCUUC; chemistry not given here; one strand in two spellings)” was tested. Which “Growth Inhibition in A549 cells” value did it give?
A: The value was “− (no growth inhibition with any siRNA)”.

Q: With “SEQ ID NO: 4844: siRNA targeting NADSYN (chain 1 TTTCTATGCACCGAAACTGCCAAGG; chain 2 UUUCUAUGCACCGAAACUGCCAAGG; chemistry not given here; one strand in two spellings)” as the substance, how does the “Growth Inhibition in A549 cells” value read?
A: Its value is “− (no growth inhibition with any siRNA)”.

Q: With “SEQ ID NO: 4845: siRNA targeting FLAD1 (chain 1 TTTGAGTGGAACTGAACAGCTGGGT; chain 2 UUUGAGUGGAACUGAACAGCUGGGU; chemistry not given here; one strand in two spellings)” as the substance, how does the “Growth Inhibition in A549 cells” value read?
A: The value was “+ (inhibits by at least 50%)”.

Q: “SEQ ID NO: 4846: siRNA targeting FLAD1 (chain 1 TGATGTGTATCCTCGGTCATACAGG; chain 2 UGAUGUGUAUCCUCGGUCAUACAGG; chemistry not given here; one strand in two spellings)” was tested. Which “Growth Inhibition in A549 cells” value did it give?
A: Its value is “− (no growth inhibition with any siRNA)”.

Q: “SEQ ID NO: 4847: siRNA targeting FLAD1 (chain 1 TGCAATGGTGGCTACCTCATCAGGT; chain 2 UGCAAUGGUGGCUACCUCAUCAGGU; chemistry not given here; one strand in two spellings)” was tested. Which “Growth Inhibition in A549 cells” value did it give?
A: The value was “− (no growth inhibition with any siRNA)”.

Q: For “SEQ ID NO: 4848: siRNA targeting COX5A (chain 1 ATAGCAGCGAACTGACTGGATAGCC; chain 2 AUAGCAGCGAACUGACUGGAUAGCC; chemistry not given here; one strand in two spellings)”, which “Growth Inhibition in A549 cells” value is on record?
A: The value was “++ (inhibits by at least 75%)”.

Q: Which “Growth Inhibition in A549 cells” value does the source give for “SEQ ID NO: 4849: siRNA targeting COX5A (chain 1 CAATTCCCAGGCATCTATATCTGGC; chain 2 CAAUUCCCAGGCAUCUAUAUCUGGC; chemistry not given here; one strand in two spellings)” here?
A: The value was “− (no growth inhibition with any siRNA)”.

Q: With “SEQ ID NO: 4850: siRNA targeting COX5A (chain 1 ATTTAAAGTTGGTCTAAGTTCCTGG; chain 2 AUUUAAAGUUGGUCUAAGUUCCUGG; chemistry not given here; one strand in two spellings)” as the substance, how does the “Growth Inhibition in A549 cells” value read?
A: The value was “− (no growth inhibition with any siRNA)”.

Q: How did the “Growth Inhibition in A549 cells” value turn out when “SEQ ID NO: 4851: siRNA targeting ATP5B (chain 1 TTTCCATGAACTCTGGAGCCTCAGC; chain 2 UUUCCAUGAACUCUGGAGCCUCAGC; Both strands are one antisense strand in DNA/RNA notation, chemistry not given here, further chemistry not given here; one strand in two spellings)” was run?
A: Its value is “− (no growth inhibition with any siRNA)”.

Q: Which “Growth Inhibition in A549 cells” value does the source give for “SEQ ID NO: 4852: siRNA targeting ATP5B (chain 1 AATCATTGCCTTCACGGGTCCTCTC; chain 2 AAUCAUUGCCUUCACGGGUCCUCUC; Both strands are one antisense strand in DNA/RNA notation, chemistry not given here, further chemistry not given here; one strand in two spellings)” here?
A: Its value is “− (no growth inhibition with any siRNA)”.

Q: How did the “Growth Inhibition in A549 cells” value turn out when “SEQ ID NO: 4853: siRNA targeting ATP5B (chain 1 TATACCAGCGCTACCTTAGAGGTGG; chain 2 UAUACCAGCGCUACCUUAGAGGUGG; Both strands are one antisense strand in DNA/RNA notation, chemistry not given here, further chemistry not given here; one strand in two spellings)” was run?
A: Its value is “+ (inhibits by at least 50%)”.
